{"source": "patent US7691392B2", "about": "(Kosan Biosciences Incorporated, priority 2005, dated 2010)", "key": {"[1]": {"assay": "Cellular assays, relative potency of 17-AAG and 17-AG", "assay_type": "cell-based", "conditions": "17-AAG versus 17-AG"}, "[2]": {"assay": "Plasma pharmacokinetics of 17-AAG and 17-AG in the open-label dose escalating trial in MM patients", "description": "The total number of PK samples collected was approximately 110 mL of whole blood (7-8 tablespoons). If a patient experienced a potentially drug-related SAE, additional PK samples were collected. Blood was drawn from the contralateral arm to the infusion site using an indwelling catheter to avoid multiple needle sticks. […] The blood tube was inverted several times, and the tube placed in wet ice immediately pending separation of the plasma. If a catheter was used for blood collection, the fluid in the catheter was completely withdrawn prior to each sample collection and discarded. Plasma samples were kept on wet ice during collection and centrifugation. Plasma samples were split into two cryovials prior to freezing at −70° C.\nThe PK analysis was performed as follows. […] PK parameters were calculated on plasma concentration time data by non-compartmental analysis using Kinetica version 4.3 software (Innaphase, Champs sur Marne, France). AUC was calculated by the mixed log-linear rule: the linear rule was applied to the range where concentration was ascending and the log-linear rule was applied to the range where the concentration was descending. AUClast is the area from t=0 to tlast, the last sampling time. AUCextra is the extrapolated area from AUClast to infinity and AUCtotal=AUClast+AUCextra and is also named AUC0-∞ area under the concentration-time curve from time zero to infinity. The terminal rate constant λz was calculated on at least three points on the elimination curve with values greater than the lower limit of quantitation. […] Table 5 lists the areas, Cmax, and half-life for the metabolite 17-AG (mean±one standard deviation). […] There was no dose dependency for half-life, clearance or distributive volumes for these dose administrations."}, "[3]": {"conditions": "patients treated at 56 mg/m^2 17-AAG; cited from earlier work"}}, "data": [{"smiles": "CO[C@H]1/C=C\\C=C(/C)C(=O)NC2=CC(=O)C(N)=C(C[C@@H](C)C[C@H](OC)[C@H](O)[C@@H](C)/C=C(\\C)[C@@H]1OC(N)=O)C2=O", "note": "[17-AG, 17-aminogeldanamycin]", "values": [{"measurement": "relative potency in cellular assays", "setting": "[1]", "value": "equipotent"}, {"measurement": "time post infusion from which plasma level of 17-AG exceeded the parent drug", "setting": "[2]; 220 mg/m^2 cohort", "value": "approximately 7 hours"}, {"measurement": "change of AUCtotal between Day 1 and Day 11", "setting": "[2]; 17 patients, first vs fourth infusion", "value": "no pattern of increase or decrease"}, {"measurement": "dose proportionality of Cmax", "setting": "[2]; 150-340 mg/m^2 17-AAG", "value": "did not increased in a dose proportional manner"}, {"measurement": "time post infusion from which plasma level of 17-AG exceeded the parent drug", "setting": "[2]; 150 and 275 mg/m^2 cohorts", "value": "approximately 3 hours"}, {"measurement": "half-life", "setting": "[2]; human, plasma, intravenous", "value": "4.6 to 5.4", "unit": "h"}, {"measurement": "Vz", "setting": "[3]", "value": 203, "unit": "L/m^2"}, {"measurement": "clearance", "setting": "[3]", "value": 30.8, "unit": "L/h/m^2"}]}]}
